# In patent publication US9999622B2, “Pyrazolothiazole compound and medicine comprising same” (NIPPON SHINYAKU CO., LTD., priority 2014, dated 2018):
# Structures can show the parent of a compound that is named as a salt.
# Assays:
# Assay type in all cases: biochemical
# JAK1 = target: T1, JAK1 (Homo sapiens, UniProt P23458); test: JAK tyrosine kinase inhibitory activity in the presence of 1 mM ATP (ELISA), JAK1
# T1 construct: purchased Carna Biosciences, Inc
# Outline: (§1)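 Recombinant kinase (7.5 nM JAK1; 0.75 nM JAK2, JAK3 working dilutions) reacted 1 h at 30 °C with 1 mM ATP in Tris-HCl pH 7.5, Tween-20, DTT, on streptavidin plates. Phosphotyrosine detected by HRP anti-pTyr antibody ELISA, TMB absorbance at 450 nm; duplicate wells, DMSO as negative control.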
# JAK2 = target: T2, JAK2 (Homo sapiens, UniProt O60674); test: JAK tyrosine kinase inhibitory activity in the presence of 1 mM ATP (ELISA), JAK2
# T2 construct: purchased Carna Biosciences, Inc
# Outline: as §1
# JAK3 = target: T3, JAK3 (Homo sapiens, UniProt P52333); test: JAK tyrosine kinase inhibitory activity in the presence of 1 mM ATP (ELISA), JAK3
# T3 construct: purchased Carna Biosciences, Inc
# T3 sequence (P52333 1-1124): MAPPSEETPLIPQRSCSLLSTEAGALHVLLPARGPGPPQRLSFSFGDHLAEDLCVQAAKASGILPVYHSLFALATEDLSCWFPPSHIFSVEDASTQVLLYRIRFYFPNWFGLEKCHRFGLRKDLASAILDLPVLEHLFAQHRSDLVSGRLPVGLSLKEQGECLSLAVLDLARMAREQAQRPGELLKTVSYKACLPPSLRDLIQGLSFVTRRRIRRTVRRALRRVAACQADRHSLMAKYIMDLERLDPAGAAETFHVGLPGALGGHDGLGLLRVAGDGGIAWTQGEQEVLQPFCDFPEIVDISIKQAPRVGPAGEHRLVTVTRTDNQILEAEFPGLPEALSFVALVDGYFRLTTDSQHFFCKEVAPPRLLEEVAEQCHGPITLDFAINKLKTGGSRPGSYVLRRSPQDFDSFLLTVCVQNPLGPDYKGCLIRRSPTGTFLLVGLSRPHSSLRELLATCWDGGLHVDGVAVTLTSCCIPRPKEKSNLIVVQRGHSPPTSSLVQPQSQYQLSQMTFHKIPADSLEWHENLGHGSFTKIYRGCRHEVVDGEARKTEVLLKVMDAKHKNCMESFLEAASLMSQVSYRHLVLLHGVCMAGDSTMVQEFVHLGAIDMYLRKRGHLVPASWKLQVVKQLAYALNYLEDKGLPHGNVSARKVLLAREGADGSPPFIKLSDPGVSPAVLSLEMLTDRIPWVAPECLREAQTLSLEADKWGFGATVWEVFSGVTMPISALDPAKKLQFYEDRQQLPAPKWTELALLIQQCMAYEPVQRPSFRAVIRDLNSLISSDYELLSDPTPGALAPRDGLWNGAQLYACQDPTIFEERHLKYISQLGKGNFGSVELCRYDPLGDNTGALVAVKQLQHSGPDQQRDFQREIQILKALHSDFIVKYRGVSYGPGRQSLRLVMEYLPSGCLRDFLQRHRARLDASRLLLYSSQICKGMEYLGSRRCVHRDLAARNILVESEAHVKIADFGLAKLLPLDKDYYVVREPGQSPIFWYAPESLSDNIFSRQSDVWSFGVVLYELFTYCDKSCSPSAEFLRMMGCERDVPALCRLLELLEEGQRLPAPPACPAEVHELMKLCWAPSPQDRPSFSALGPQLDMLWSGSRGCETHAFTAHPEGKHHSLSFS
# Outline: as §1
# T1 sequence (P23458 whole entry): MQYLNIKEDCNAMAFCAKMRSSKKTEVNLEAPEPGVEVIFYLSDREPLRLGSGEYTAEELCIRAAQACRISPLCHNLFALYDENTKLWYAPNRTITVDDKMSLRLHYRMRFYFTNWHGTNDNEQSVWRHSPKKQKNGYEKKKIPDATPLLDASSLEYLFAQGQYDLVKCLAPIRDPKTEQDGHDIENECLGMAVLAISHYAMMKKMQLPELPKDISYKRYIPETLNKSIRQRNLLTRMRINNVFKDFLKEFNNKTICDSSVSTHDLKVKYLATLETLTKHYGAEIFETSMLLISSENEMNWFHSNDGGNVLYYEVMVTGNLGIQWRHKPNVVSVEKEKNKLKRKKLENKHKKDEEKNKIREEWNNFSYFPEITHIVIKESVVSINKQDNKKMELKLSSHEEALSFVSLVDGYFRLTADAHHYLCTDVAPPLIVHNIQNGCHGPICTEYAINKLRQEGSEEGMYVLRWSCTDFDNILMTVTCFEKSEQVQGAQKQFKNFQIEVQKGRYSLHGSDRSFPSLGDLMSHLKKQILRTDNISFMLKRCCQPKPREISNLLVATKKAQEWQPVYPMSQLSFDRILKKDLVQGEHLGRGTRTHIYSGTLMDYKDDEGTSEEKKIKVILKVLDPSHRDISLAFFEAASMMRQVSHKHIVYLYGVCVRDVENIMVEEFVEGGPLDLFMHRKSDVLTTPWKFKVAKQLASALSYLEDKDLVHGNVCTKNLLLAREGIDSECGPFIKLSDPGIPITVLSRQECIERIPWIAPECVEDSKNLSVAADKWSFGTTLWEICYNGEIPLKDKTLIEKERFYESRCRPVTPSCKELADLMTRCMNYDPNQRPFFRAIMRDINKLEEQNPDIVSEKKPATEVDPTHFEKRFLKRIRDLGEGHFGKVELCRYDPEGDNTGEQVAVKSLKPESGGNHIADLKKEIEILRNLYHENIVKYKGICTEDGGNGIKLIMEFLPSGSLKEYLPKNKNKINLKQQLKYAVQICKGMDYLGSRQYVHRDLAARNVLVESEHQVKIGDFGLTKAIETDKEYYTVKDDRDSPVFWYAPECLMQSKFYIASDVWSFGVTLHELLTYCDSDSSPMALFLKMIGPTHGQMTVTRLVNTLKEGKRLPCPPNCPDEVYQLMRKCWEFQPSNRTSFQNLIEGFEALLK
# T2 sequence (O60674 whole entry): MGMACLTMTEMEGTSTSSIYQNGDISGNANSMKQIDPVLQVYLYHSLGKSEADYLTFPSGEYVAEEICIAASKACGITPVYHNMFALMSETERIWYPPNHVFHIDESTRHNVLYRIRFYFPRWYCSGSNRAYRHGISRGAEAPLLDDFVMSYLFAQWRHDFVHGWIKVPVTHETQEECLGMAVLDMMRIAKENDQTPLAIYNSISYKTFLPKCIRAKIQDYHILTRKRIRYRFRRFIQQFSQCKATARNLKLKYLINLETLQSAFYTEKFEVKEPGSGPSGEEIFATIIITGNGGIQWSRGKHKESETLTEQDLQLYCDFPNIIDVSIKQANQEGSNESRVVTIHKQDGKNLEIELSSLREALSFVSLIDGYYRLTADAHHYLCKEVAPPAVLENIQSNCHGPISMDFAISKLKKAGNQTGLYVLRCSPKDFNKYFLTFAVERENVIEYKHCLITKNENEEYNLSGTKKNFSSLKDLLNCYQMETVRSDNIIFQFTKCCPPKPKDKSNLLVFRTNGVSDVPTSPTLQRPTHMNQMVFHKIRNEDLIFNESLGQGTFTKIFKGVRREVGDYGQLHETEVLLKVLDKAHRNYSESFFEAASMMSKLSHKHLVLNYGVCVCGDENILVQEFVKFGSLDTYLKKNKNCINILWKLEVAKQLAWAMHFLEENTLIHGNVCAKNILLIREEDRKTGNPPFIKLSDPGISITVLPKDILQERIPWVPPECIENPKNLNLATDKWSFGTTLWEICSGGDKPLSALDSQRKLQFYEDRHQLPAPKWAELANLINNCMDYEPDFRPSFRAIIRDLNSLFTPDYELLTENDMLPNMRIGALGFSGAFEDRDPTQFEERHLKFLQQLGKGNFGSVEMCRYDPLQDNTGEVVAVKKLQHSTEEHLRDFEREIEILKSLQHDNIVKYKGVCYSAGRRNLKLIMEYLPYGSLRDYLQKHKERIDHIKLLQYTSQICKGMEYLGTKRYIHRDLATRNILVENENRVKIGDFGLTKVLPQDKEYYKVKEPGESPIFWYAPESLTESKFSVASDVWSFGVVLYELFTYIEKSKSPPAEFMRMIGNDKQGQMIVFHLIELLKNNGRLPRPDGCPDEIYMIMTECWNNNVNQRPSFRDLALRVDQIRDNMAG
Compound,IC50 (JAK1),IC50 (JAK2),IC50 (JAK3)
"O=C(NC1CCN(C(=O)c2cc(NC3CCNCC3)nc(-c3cnn4ccsc34)n2)CC1)C1CC1 [Example 181, N-(1-6-[(piperidin-4-yl)amino]-2-(pyrazolo[5,1-b][1,3]thiazol-7-yl)pyrimidine-4-carbonylpiperidin-4-yl)cyclopropanecarboxamide dihydrochloride]",860 nM,> 10000 nM,> 10000 nM
"C[C@@H](Nc1cc(C(=O)N2CCC(NC(=O)C3CCCCC3)CC2)nc(-c2cnn3ccsc23)n1)C(C)(C)C [Example 182, N-1-[6-[(2R)-3,3-dimethylbutan-2-yl]amino-2-(pyrazolo[5,1-b][1,3]thiazol-7-yl)pyrimidine-4-carbonyl]piperidin-4-ylcyclohexanecarboxamide]",88 nM,5400 nM,1700 nM
"C[C@@H](Nc1cc(C(=O)N2CCC(NC(=O)c3ccccc3)CC2)nc(-c2cnn3ccsc23)n1)C(C)(C)C [Example 183, N-1-[6-[(2R)-3,3-dimethylbutan-2-yl]amino-2-(pyrazolo[5,1-b][1,3]thiazol-7-yl)pyrimidine-4-carbonyl]piperidin-4-ylbenzamide]",87 nM,> 10000 nM,1200 nM
"Cc1ccccc1C(=O)NC1CCN(C(=O)c2cc(N[C@@H](C)C3CC3)nc(-c3cnn4ccsc34)n2)CC1 [Example 184, N-1-[6-[(1S)-1-cyclopropylethyl]amino-2-(pyrazolo[5,1-b][1,3]thiazol-7-yl)pyrimidine-4-carbonyl]piperidin-4-yl-2-methylbenzamide]",62 nM,> 10000 nM,470 nM
"C[C@H](Nc1cc(C(=O)N2CCC(NC(=O)c3ccccn3)CC2)nc(-c2cnn3ccsc23)n1)C1CC1 [Example 185, N-1-[6-[(1S)-1-cyclopropylethyl]amino-2-(pyrazolo[5,1-b][1,3]thiazol 7 yl)pyrimidine-4-carbonyl]piperidin-4-ylpyridine-2-carboxamide]",190 nM,> 10000 nM,810 nM
"COc1ccccc1C(=O)NC1CCN(C(=O)c2cc(N[C@@H](C)C3CC3)nc(-c3cnn4ccsc34)n2)CC1 [Example 186, N-1-[6-[(1S)-1-cyclopropylethyl]amino-2-(pyrazolo[5,1-b][1,3]thiazol-7-yl)pyrimidine-4-carbonyl]piperidin-4-yl-2-methoxybenzamide]",81 nM,> 10000 nM,580 nM
"C[C@H](Nc1cc(C(=O)N2CCC(NC(=O)c3ccncc3)CC2)nc(-c2cnn3ccsc23)n1)C1CC1 [Example 187, N-1-[6-[(1S)-1-cyclopropylethyl]amino-2-(pyrazolo[5,1-b][1,3]thiazol-7-yl)pyrimidine-4-carbonyl]piperidin-4-ylpyridine-4-carboxamide]",68 nM,2100 nM,1800 nM
"CC(=O)N1CCC(Nc2cc(C(=O)N3CCC(NC(=O)C4CC4)CC3)nc(-c3cnn4ccsc34)n2)CC1 [Example 188, N-(1-6-[(l-acetylpiperidin-4-yl)amino]-2-(pyrazolo[5,1-b][1,3]thiazol-7-yl)pyrimidine-4-carbonylpiperidin-4-yl)cyclopropanecarboxamide]",1300 nM,> 10000 nM,> 10000 nM
"CS(=O)(=O)N1CCC(Nc2cc(C(=O)N3CCC(NC(=O)C4CC4)CC3)nc(-c3cnn4ccsc34)n2)CC1 [Example 189, N-1-[6-[1-(methanesulfonyl)piperidin-4-yl]amino-2-(pyrazolo[5,1-b][1,3]thiazol-7-yl)pyrimidine-4-carbonyl]piperidin-4-ylcyclopropanecarboxamide]",1100 nM,> 10000 nM,> 10000 nM
"CCCCC(=O)NC1CCN(C(=O)c2cc(N[C@@H](C)C3CC3)nc(-c3cnn4ccsc34)n2)CC1 [Example 190, N-1-[6-[(1S)-1-cyclopropylethyl]amino-2-(pyrazolo[5,1-b][1,3]thiazol-7-yl)pyrimidine-4-carbonyl]piperidin-4-ylpentanamide]",65 nM,6600 nM,1000 nM
"N#CCC(=O)N1CC[C@@H](Nc2cc(C(=O)N3CCC(NC(=O)C4CC4)CC3)nc(-c3cnn4ccsc34)n2)C1 [Example 191, N-1-[6-[(3R)-1-(cyanoacetyl)pyrrolidin-3-yl]amino-2-(pyrazolo[5,1-b][1,3]thiazol-7-yl)pyrimidine-4-carbonyl]piperidin-4-ylcyclopropanecarboxamide]",52 nM,> 10000 nM,> 10000 nM
"COC(=O)NC1CCN(C(=O)c2cc(NCC3CCN(C(=O)OC)CC3)nc(-c3cnn4ccsc34)n2)CC1 [Example 192, Methyl 4-([6-4-[(methoxycarbonyl)amino]piperidine-1-carbonyl-2-(pyrazolo[5,1-b][1,3]thiazol-7-yl)pyrimidin-4-yl]aminomethyl)piperidine-1-carboxylate]",690 nM,> 10000 nM,> 10000 nM
"CC(C)S(=O)(=O)N1CCC(Nc2cc(C(=O)N3CCC(NC(=O)C4CC4)CC3)nc(-c3cnn4ccsc34)n2)CC1 [Example 193, N-1-[6-[1-(propane-2-sulfonyl)piperidin-4-yl]amino-2-(pyrazolo[5,1-b][1,3]thiazol-7-yl)pyrimidine-4-carbonyl]piperidin-4-ylcyclopropanecarboxamide]",470 nM,> 10000 nM,> 10000 nM
"COC(=O)N1CCC(Nc2cc(C(=O)N3CCC(NC(=O)C4CC4)CC3)nc(-c3cnn4ccsc34)n2)CC1 [Example 194, Methyl 4-[6-4-[(cyclopropanecarbonyl)amino]piperidine-1-carbonyl-2-(pyrazolo[5,1-b][1,3]thiazol-7-yl)pyrimidin-4-yl]aminopiperidine-1-carboxylate]",260 nM,> 10000 nM,> 10000 nM
"CCCCCCC(=O)NC1CCN(C(=O)c2cc(N[C@H](C)C(C)(C)C)nc(-c3cnn4ccsc34)n2)CC1 [Example 195, N-1-[6-[(2R)-3,3-dimethylbutan-2-yl]amino-2-(pyrazolo[5,1-b][1,3]thiazol-7-yl)pyrimidine-4-carbonyl]piperidin-4-ylheptanamide]",310 nM,9000 nM,4900 nM
"C[C@@H](Nc1cc(C(=O)N2CCC(NC(=O)c3ccccc3Cl)CC2)nc(-c2cnn3ccsc23)n1)C(C)(C)C [Example 196, 2-Chloro-N-1-[6-[(2R)-3,3-dimethylbutan-2-yl]amino-2-(pyrazolo[5,1-b][1,3]thiazol-7-yl)pyrimidine-4-carbonyl]piperidin-4-ylbenzamide]",110 nM,9100 nM,7300 nM
"C[C@@H](Nc1cc(C(=O)N2CCC(NC(=O)c3ccc(F)cc3)CC2)nc(-c2cnn3ccsc23)n1)C(C)(C)C [Example 197, N-1-[6-[(2R)-3,3-dimethylbutan-2-yl]amino-2-(pyrazolo[5,1-b][1,3]thiazol-7-yl)pyrimidine-4-carbonyl]piperidin-4-yl-4-fluorobenzamide]",120 nM,8200 nM,3800 nM
"CCC(=O)N1CCC(Nc2cc(C(=O)N3CCC(NC(=O)OC)CC3)nc(-c3cnn4ccsc34)n2)CC1 [Example 198, Methyl (1-6-[(1-propanoylpiperidin-4-yl)amino]-2-(pyrazolo[5,1-b][1,3]thiazol-7-yl)pyrimidine-4-carbonylpiperidin-4-yl)carbamate]",1500 nM,> 10000 nM,> 10000 nM
"COC(=O)NC1CCN(C(=O)c2cc(NC3CCN(C(=O)CC#N)CC3)nc(-c3cnn4ccsc34)n2)CC1 [Example 199, Methyl (1-{[6-{[1-(cyanoacetyl)piperidin-4-yl]amino}-2-(pyrazolo[5,1-b][1,3]thiazol-7-yl)pyrimidin-4-yl]carbonyl}piperidin-4-yl)carbamate]",2800 nM,> 10000 nM,> 10000 nM
"COC(=O)NC1CCN(C(=O)c2cc(NC3CCN(S(C)(=O)=O)CC3)nc(-c3cnn4ccsc34)n2)CC1 [Example 200, Methyl 1-[6-[1-(methanesulfonyl)piperidin-4-yl]amino-2-(pyrazolo[5,1-b][1,3]thiazol-7-yl)pyrimidine-4-carbonyl]piperidin-4-ylcarbamate]",2400 nM,> 10000 nM,> 10000 nM
